Experimental data taken from ChEMBL document CHEMBL1201862, “PubChem BioAssay data set” (2004).
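These data come from cells grown in 96-well plates and exposed to compound for 48 hours at five concentrations. At the GI50, growth is halved.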 Active and inactive are the calls of the source. No stated cut-off is given here; in the data, active = GI50 up to about 1.1 µM and inactive = higher.

How the values were obtained:
Test in all cases: NCI-60 cell line screen, 48 h
UO-31 = system: UO-31
RXF 393 = system: RXF 393
HCT-116 = system: HCT-116
NCI-H226 = system: NCI-H226
SF-268 = system: SF-268
KM12 = system: KM12
SNB-75 = system: SNB-75
COLO 205 = system: COLO 205
NCI/ADR-RES = system: NCI/ADR-RES
OVCAR-8 = system: OVCAR-8
LOX IMVI = system: LOX IMVI
U-251 = system: U-251
SR = system: SR
BT-549 = system: BT-549
OVCAR-3 = system: OVCAR-3
MOLT-4 = system: MOLT-4
MDA-MB-231 = system: MDA-MB-231
NCI-H460 = system: NCI-H460
DU-145 = system: DU-145
A498 = system: A498
K562 = system: K562
HOP-62 = system: HOP-62
SN12C = system: SN12C
SK-MEL-2 = system: SK-MEL-2
UACC-62 = system: UACC-62
SK-OV-3 = system: SK-OV-3
HL-60 = system: HL-60
A549 = system: A549
HOP-92 = system: HOP-92
UACC-257 = system: UACC-257
Malme-3M = system: Malme-3M
CAKI-1 = system: CAKI-1
SK-MEL-28 = system: SK-MEL-28
IGROV-1 = system: IGROV-1
SW-620 = system: SW-620
T47D = system: T47D
OVCAR-5 = system: OVCAR-5
SF-539 = system: SF-539
EKVX = system: EKVX
SK-MEL-5 = system: SK-MEL-5
CCRF-CEM = system: CCRF-CEM
SF-295 = system: SF-295
MDA-MB-435 = system: MDA-MB-435
Hs-578T = system: Hs-578T
NCI-H23 = system: NCI-H23
M14 = system: M14
786-0 = system: 786-0
PC-3 = system: PC-3
HT-29 = system: HT-29
OVCAR-4 = system: OVCAR-4
HCT-15 = system: HCT-15
SNB-19 = system: SNB-19
TK-10 = system: TK-10
MCF7 = system: MCF7
RPMI-8226 = system: RPMI-8226
NCI-H522 = system: NCI-H522
ACHN = system: ACHN
MDA-N = system: MDA-N
HCC 2998 = system: HCC 2998

Measured: GI50

CC(NCCN(C)C)C1CCC2C3CCc4cc(O)ccc4C3CCC12C (configuration not stated)
2.79 µM: HCT-15
active: CCRF-CEM 0.723 µM
inactive: UO-31 1.81 µM | RXF 393 1.85 µM | HCT-116 2.66 µM | NCI-H226 17.8 µM | SF-268 5.28 µM | KM12 3.21 µM | SNB-75 3.14 µM | COLO 205 1.84 µM | NCI/ADR-RES 2.86 µM | OVCAR-8 2.79 µM | LOX IMVI 2.03 µM | U-251 2.07 µM | SR 1.44 µM | BT-549 17.4 µM | OVCAR-3 1.88 µM | MOLT-4 1.85 µM | MDA-MB-231 1.97 µM | NCI-H460 2.2 µM | DU-145 6.18 µM | A498 4.01 µM | K562 1.86 µM | HOP-62 3.24 µM | SN12C 2 µM | SK-MEL-2 1.91 µM | UACC-62 1.93 µM | SK-OV-3 3.69 µM | HL-60 2.09 µM | A549 3.65 µM | HOP-92 2.81 µM | UACC-257 2.06 µM | Malme-3M 1.68 µM | CAKI-1 2.07 µM | SK-MEL-28 2.19 µM | IGROV-1 4.97 µM | SW-620 3.33 µM | T47D 2.34 µM | OVCAR-5 5.42 µM | SF-539 4.76 µM | EKVX 5.19 µM | SK-MEL-5 1.71 µM | SF-295 2.59 µM | MDA-MB-435 2.05 µM | Hs-578T 4.17 µM | NCI-H23 4.45 µM | M14 1.67 µM | 786-0 1.83 µM | PC-3 2.82 µM | HT-29 2.89 µM | OVCAR-4 3.02 µM | SNB-19 3.54 µM | TK-10 2.72 µM | MCF7 2.96 µM | RPMI-8226 2.34 µM | NCI-H522 3.2 µM | ACHN 2 µM

COc1cc(C2c3cc4c(cc3OC(NN)C2C)OCO4)cc(OC)c1O (configuration not stated)
inactive: UO-31 19.8 µM | RXF 393 15.3 µM | MDA-N 1.84 µM | HCT-116 4.63 µM | NCI-H226 25.4 µM | SF-268 28.3 µM | KM12 6.08 µM | SNB-75 4.28 µM | COLO 205 15.2 µM | NCI/ADR-RES 4.52 µM | OVCAR-8 16.5 µM | U-251 7.23 µM | BT-549 10.3 µM | OVCAR-3 3.66 µM | MDA-MB-231 9.2 µM | DU-145 15.3 µM | K562 3.08 µM | SN12C 4.3 µM | SK-MEL-2 3.3 µM | UACC-62 4.92 µM | HL-60 2.24 µM | A549 8.2 µM | HOP-92 23.6 µM | UACC-257 18.5 µM | HCC 2998 12.4 µM | Malme-3M 5.71 µM | CAKI-1 10.4 µM | SK-MEL-28 6.75 µM | IGROV-1 5.94 µM | SW-620 4.73 µM | T47D 7.28 µM | OVCAR-5 31.6 µM | SF-539 11.9 µM | SK-MEL-5 4.13 µM | SF-295 3.85 µM | MDA-MB-435 2.32 µM | NCI-H23 27 µM | M14 10.4 µM | 786-0 11.3 µM | PC-3 10.4 µM | HT-29 6.22 µM | OVCAR-4 26.8 µM | SNB-19 32.5 µM | TK-10 26.2 µM | MCF7 8.09 µM | RPMI-8226 3.95 µM | NCI-H522 5.96 µM
3.72 µM: HCT-15

O=C(CCC1CCCCC1)NCc1ccc(C(=O)O)cc1
> 100 µM: HCT-15
inactive: UO-31 > 100 µM | RXF 393 > 100 µM | MDA-N > 100 µM | HCT-116 > 100 µM | NCI-H226 > 100 µM | SF-268 > 100 µM | KM12 > 100 µM | SNB-75 > 100 µM | COLO 205 > 100 µM | NCI/ADR-RES > 100 µM | OVCAR-8 > 100 µM | LOX IMVI > 100 µM | U-251 > 100 µM | SR > 100 µM | BT-549 > 100 µM | OVCAR-3 > 100 µM | MOLT-4 > 100 µM | MDA-MB-231 > 100 µM | NCI-H460 > 100 µM | DU-145 > 100 µM | A498 > 100 µM | K562 > 100 µM | HOP-62 > 100 µM | SN12C > 100 µM | SK-MEL-2 > 100 µM | UACC-62 > 100 µM | SK-OV-3 > 100 µM | A549 > 100 µM | HOP-92 > 100 µM | UACC-257 > 100 µM | HCC 2998 > 100 µM | Malme-3M > 100 µM | CAKI-1 > 100 µM | SK-MEL-28 > 100 µM | IGROV-1 > 100 µM | SW-620 > 100 µM | T47D > 100 µM | OVCAR-5 > 100 µM | SF-539 > 100 µM | EKVX 56.9 µM | SK-MEL-5 > 100 µM | CCRF-CEM 47.1 µM | SF-295 > 100 µM | MDA-MB-435 > 100 µM | NCI-H23 > 100 µM | M14 > 100 µM | 786-0 > 100 µM | PC-3 > 100 µM | HT-29 > 100 µM | OVCAR-4 > 100 µM | SNB-19 > 100 µM | TK-10 > 100 µM | MCF7 > 100 µM | RPMI-8226 > 100 µM | NCI-H522 > 100 µM | ACHN > 100 µM
